From US9605026B2, “Hydrogen-bond surrogate peptides and peptidomimetics for p53 reactivation” (New York University, priority 2013, dated 2017)

How the values were obtained:
UMSCC47 cells = assay: Tumorsphere formation of UMSCC47 cells; type: cell-based, human; details: UMSCC47, 10 μM, 7 days, vs vehicle
Experimental: FIG. 6A is a western blot showing total and acetylated p53 levels. UMSCC47 cells were treated with control (vehicle), CH1iB (10 μM), cis-platinum (10 μM), or CH1iB (10 μM) and cis-platinum (10 μM) for 24 hours. Cell lysates were immunoblotted with anti-p53 or anti-acetylated[K382]-p53 antibody. FIG. 6B is a graph of p53 transcriptional activity. UMSCC47 cells were co-transfected with a p53 Firefly luciferase reporter plasmid and a control Renilla luciferase plasmid. After 24 hours, cells were treated with control (vehicle), CH1iB (10 μM), cis-platinum (10 μM), or CH1iB (10 μM) and cis-platinum (10 μM) for 24 hours. Firefly luciferase activity was normalized to Renilla luciferase activity to control for transfection efficiency. […] UMSCC47 cells were treated with control (vehicle), CH1iB (10 μM), cis-platinum (10 μM), or CH1iB (10 μM) and cis-platinum (10 μM) for 24 hours. mRNA expression was determined using qPCR with validated TaqMan assays. […] FACS was used to quantitate Annexin V-positive apoptotic cells (left panel). […] Tumorsphere formation efficiency was calculated as the number of tumorspheres (≧50 μm in diameter) formed in 7 days divided by the original number of cells seeded. Tumorsphere diameter was measured using NIS-Elements software. […]

[1] = molecular target: T1, HPV16 E6-p300 association (Homo sapiens, UniProt Q09472); assay: Immunoprecipitation of HPV16 E6-p300 association in UMSCC47 cells; type: cell-based; details: UMSCC47, 10 μM, 24 hours
T1 construct: UMSCC47 cells were treated with control (vehicle), CH1iA (10 μM), or CH1iB (10 μM) for 24 hours; endogenous in cells; host or cells: UMSCC47 (HPV16-positive HNSCC cells)
T1 sequence (Q09472 whole entry): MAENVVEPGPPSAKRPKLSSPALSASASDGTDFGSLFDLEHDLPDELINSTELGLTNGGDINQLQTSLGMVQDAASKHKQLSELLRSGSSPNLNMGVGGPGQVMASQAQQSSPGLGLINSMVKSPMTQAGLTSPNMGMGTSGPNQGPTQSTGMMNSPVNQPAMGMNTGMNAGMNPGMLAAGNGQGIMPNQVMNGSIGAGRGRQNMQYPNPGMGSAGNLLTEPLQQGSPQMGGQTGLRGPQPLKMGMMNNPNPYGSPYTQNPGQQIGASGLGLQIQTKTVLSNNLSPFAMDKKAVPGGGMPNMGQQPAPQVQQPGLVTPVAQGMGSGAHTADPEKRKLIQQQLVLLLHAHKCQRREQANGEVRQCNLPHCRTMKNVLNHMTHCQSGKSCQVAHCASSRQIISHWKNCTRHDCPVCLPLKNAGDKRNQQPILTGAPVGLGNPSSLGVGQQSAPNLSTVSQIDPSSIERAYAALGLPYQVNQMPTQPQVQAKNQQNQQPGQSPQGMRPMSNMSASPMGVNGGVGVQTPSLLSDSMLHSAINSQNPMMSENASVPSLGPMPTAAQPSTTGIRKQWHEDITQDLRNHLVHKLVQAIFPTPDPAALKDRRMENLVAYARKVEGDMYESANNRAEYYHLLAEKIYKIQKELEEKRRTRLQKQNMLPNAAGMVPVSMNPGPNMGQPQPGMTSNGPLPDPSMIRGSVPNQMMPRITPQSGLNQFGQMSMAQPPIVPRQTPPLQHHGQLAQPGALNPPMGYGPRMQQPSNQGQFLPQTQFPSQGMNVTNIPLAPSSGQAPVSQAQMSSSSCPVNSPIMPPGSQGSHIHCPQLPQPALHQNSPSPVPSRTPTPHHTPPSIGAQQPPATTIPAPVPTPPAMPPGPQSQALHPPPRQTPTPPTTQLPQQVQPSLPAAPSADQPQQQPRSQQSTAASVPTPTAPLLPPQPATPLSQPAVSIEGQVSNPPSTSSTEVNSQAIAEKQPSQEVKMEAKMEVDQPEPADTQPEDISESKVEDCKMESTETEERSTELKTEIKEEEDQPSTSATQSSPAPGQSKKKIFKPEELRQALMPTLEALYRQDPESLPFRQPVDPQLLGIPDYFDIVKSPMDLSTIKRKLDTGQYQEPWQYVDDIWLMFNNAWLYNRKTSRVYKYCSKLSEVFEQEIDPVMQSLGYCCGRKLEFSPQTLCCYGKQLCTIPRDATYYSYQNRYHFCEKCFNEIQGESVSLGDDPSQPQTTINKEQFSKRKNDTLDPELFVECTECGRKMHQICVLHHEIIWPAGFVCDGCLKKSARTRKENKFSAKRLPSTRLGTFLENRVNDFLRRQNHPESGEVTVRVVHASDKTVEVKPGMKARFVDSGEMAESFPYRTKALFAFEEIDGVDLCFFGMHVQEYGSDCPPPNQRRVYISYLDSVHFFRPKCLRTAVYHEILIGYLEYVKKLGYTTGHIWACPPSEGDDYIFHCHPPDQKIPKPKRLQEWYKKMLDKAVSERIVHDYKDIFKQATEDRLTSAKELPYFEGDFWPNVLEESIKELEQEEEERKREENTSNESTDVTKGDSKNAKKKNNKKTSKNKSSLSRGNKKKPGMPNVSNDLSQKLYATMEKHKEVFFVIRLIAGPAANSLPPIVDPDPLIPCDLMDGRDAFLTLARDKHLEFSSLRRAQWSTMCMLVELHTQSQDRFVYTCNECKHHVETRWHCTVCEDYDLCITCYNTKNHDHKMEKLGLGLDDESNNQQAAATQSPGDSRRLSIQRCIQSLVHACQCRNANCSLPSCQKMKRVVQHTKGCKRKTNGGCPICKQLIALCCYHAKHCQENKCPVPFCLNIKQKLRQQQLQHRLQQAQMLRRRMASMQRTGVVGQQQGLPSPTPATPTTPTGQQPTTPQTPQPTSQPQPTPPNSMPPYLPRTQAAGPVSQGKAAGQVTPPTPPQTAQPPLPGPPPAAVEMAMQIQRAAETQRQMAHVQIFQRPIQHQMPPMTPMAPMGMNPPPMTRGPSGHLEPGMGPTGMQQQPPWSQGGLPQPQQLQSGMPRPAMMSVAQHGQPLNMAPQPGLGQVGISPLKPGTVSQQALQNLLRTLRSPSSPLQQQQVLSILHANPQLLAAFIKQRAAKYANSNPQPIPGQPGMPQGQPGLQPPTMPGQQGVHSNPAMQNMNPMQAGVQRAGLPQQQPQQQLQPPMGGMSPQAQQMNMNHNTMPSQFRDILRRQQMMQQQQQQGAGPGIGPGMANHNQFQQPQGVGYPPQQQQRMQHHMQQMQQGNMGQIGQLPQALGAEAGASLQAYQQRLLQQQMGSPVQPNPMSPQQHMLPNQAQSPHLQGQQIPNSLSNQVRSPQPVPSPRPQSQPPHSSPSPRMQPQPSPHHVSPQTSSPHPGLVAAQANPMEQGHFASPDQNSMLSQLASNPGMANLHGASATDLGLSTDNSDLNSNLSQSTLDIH
Experimental: FIG. 5C is a graph of p53 activity. UMSCC47 (left) and UMSCC74A (right) cells were co-transfected with a p53 Firefly luciferase reporter plasmid and a control Renilla luciferase plasmid. After 24 hours, cells were treated with control (vehicle), CH1iA (10 μM), or CH1iB (10 μM) for 24 hours. Firefly luciferase activity was normalized to Renilla luciferase activity to control for transfection efficiency. Data is normalized to control and presented as mean±SEM. *P<0.05, n=3. FIG. 5D is a western blot showing total and acetylated p53 levels. UMSCC47 (left) and UMSCC74A (right) cells were treated with control (vehicle), CH1iA (10 μM), or CH1iB (10 μM) for 24 hours. Cell lysates were immunoblotted with anti-p53 or anti-acetylated[K382]-p53 antibody. FIG. 5E is a pair of graphs of p300, p53, p21, miR-34a, and miR-200c expression. UMSCC47 (top panel) and UMSCC74A (bottom panel) cells were treated with control (vehicle), CH1iA (10 μM), or CH1iB (10 μM) for 24 hours. mRNA expression was determined using qPCR with validated TaqMan assays. Data is normalized to control cells and presented as mean±SEM. *P<0.01, control vs. CH1iB, n=3. […] UMSCC47 cells were treated with control (vehicle), CH1iA (10 μM), or CH1iB (10 μM) for 24 hours. Cell lysates were extracted, immunoprecipitated with anti-p300 antibody, and immunoblotted with anti-E6 antibody. […]

XELA*RALDQ-NH2 (ELXRALDQ; HBS: 4-pentenoic acid, N-allylalanine; C-terminal amide; CH1iB) [X 4-pentenoic acid, A* N-allylalanine]
reduction of tumorsphere formation (UMSCC47 cells): 20% | association between E6 and p300 [1]: reduced
